Results reported in ChEMBL document CHEMBL1128123, “Inhibitors of acyl-CoA: Cholesterol O-acyl transferase (ACAT) as hypocholesterolemic agents. 12. Syntheses and biological activity of structurally novel tetrazole amides” (Bioorg Med Chem Lett, 1995).

Key:
[1] = biological target: T1, Sterol O-acyltransferase 1 (Rattus norvegicus, UniProt O70536); assay: Concentration required for the in vitro inhibition of Acyl coenzyme A:cholesterol acyltransferase (ACAT) in liver microsomes isolated from cholesterol-fed rats; parameters: species or system Microsome
T1 sequence (O70536 whole entry): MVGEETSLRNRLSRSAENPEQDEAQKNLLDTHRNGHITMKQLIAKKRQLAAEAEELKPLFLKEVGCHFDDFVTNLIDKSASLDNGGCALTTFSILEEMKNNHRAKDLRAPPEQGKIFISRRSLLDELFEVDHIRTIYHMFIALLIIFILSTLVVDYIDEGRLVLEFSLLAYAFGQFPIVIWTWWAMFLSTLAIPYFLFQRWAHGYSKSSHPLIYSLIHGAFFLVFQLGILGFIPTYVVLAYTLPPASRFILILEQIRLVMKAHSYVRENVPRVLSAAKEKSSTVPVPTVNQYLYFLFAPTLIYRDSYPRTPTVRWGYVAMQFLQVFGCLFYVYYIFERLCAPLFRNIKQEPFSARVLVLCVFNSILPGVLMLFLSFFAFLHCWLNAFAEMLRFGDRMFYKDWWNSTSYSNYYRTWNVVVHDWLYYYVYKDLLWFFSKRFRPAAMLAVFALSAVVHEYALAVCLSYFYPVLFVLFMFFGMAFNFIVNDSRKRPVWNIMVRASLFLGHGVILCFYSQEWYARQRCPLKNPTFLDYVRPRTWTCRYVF

Rattus norvegicus = organism: Rattus norvegicus; assay: Percent change in total cholesterol in cholic acid (0.5%)-cholesterol (1.5%)-peanut oil (5.5%)-fed rats; type: functional
[2] = biological target: T2, Acyl-CoA:cholesterol acyltransferase (Oryctolagus cuniculus, UniProt Q95214); assay: Concentration required for the in vitro inhibition of Acyl coenzyme A:cholesterol acyltransferase (ACAT) in intestinal microsomes isolated from cholesterol-fed rabbits; parameters: species or system Intestine
T2 sequence (Q95214 whole entry): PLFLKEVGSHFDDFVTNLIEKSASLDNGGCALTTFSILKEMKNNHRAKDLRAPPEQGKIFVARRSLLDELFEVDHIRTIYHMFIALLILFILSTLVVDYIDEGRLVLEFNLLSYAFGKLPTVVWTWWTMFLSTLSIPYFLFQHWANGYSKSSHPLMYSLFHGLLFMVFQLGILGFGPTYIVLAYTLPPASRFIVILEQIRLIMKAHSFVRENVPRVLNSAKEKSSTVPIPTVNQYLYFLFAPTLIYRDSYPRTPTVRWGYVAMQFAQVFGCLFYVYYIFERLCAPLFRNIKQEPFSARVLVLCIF

Compound: CCCCCCCCCCCCn1nnc(C(NC(=O)c2ccc(C)cc2)c2ccccc2)n1 (configuration not stated)
- IC50 [1]: 510 nM
- Change TC (Rattus norvegicus): -4%

Compound: CCCCCCCCCCCCn1nnc(C(NC(=O)c2c(C)cccc2C)c2ccccc2)n1 (configuration not stated)
- IC50 [2]: 110 nM
- IC50 [1]: 310 nM
- Change TC (Rattus norvegicus): -40%

Compound: CCCCCCCCCCCCn1nnnc1C(NC(=O)c1ccnc(SC)c1)c1ccccc1 (configuration not stated)
- IC50 [1]: 140 nM
- Change TC (Rattus norvegicus): -37%

Compound: CCCCCCCCCCCCn1nnc(C(NC(=O)c2c(Cl)cccc2Cl)c2ccccc2)n1 (configuration not stated)
- IC50 [1]: 460 nM
- Change TC (Rattus norvegicus): -26%

Compound: CCCCCCCn1nnc(C(NC(=O)c2c(C)cccc2C)c2ccccc2)n1 (configuration not stated)
- Change TC (Rattus norvegicus): -13%

Compound: CCCCCCCCCCCCn1nnnc1C(NC(=O)c1ccccc1C(F)(F)F)c1ccccc1 (configuration not stated)
- IC50 [1]: 350 nM
- Change TC (Rattus norvegicus): -12%

Compound: CCCCCCCCCCCCn1nnc(C(NC(=O)c2ccccc2[N+](=O)[O-])c2ccccc2)n1 (configuration not stated)
- IC50 [1]: 240 nM
- Change TC (Rattus norvegicus): -27%

Compound: CCCCCCCCCCCCn1nnc(C(NC(=O)c2ccccc2C(F)(F)F)c2ccccc2)n1 (configuration not stated)
- IC50 [1]: 120 nM
- Change TC (Rattus norvegicus): -15%

Compound: CCCCCCCCCCCCn1nnc(C(NC(=O)c2ccc(OC)cc2)c2ccccc2)n1 (configuration not stated)
- IC50 [1]: 600 nM
- Change TC (Rattus norvegicus): -34%

Compound: CCCCCCCCCCCCn1nnc(C(NC(=O)c2cccc(Cl)c2)c2ccccc2)n1 (configuration not stated)
- IC50 [1]: 250 nM
- Change TC (Rattus norvegicus): 3%

Compound: CCCCCCCCCCCCn1nnc(C(NC(=O)c2ccc(F)cc2F)c2ccccc2)n1 (configuration not stated)
- IC50 [1]: 490 nM
- Change TC (Rattus norvegicus): -10%

Compound: CCCCCCCCCCCCn1nnc(C(NC(=O)c2ccccc2OC)c2ccccc2)n1 (configuration not stated)
- IC50 [1]: 650 nM
- Change TC (Rattus norvegicus): -28%

Compound: CCCCCCCCCCCCn1nnnc1C(NC(=O)c1ccc(F)cc1F)c1ccccc1 (configuration not stated)
- IC50 [1]: 380 nM
- Change TC (Rattus norvegicus): -23%

Compound: CCCCCCCCCCCCn1nnc(C(NC(=O)c2cccc([N+](=O)[O-])c2)c2ccccc2)n1 (configuration not stated)
- IC50 [1]: 80 nM
- Change TC (Rattus norvegicus): -33%

Compound: CCCCCCCCCCC(C)(C)NC(=O)c1c(OC)cc(OC)cc1OC
- IC50 [1]: > 10000 nM
- Change TC (Rattus norvegicus): -10%

Compound: CCCCCCCCCCCCn1nnnc1C(NC(=O)c1c(C)cccc1C)c1ccccc1 (configuration not stated)
- IC50 [1]: 180 nM
- Change TC (Rattus norvegicus): -57%

Compound: CCCCCCCCCCCCn1nnc(C(NC(=O)c2c(C(C)C)cccc2C(C)C)c2ccccc2)n1 (configuration not stated)
- IC50 [1]: 810 nM
- Change TC (Rattus norvegicus): 2%

Compound: CCCCCCCCCCCCCCCn1nnc(C(NC(=O)c2c(C)cccc2C)c2ccccc2)n1 (configuration not stated)
- Change TC (Rattus norvegicus): -14%

Compound: CCCCCCCC/C=C\CCCCCCCCNC(=O)c1c(OC)cc(OC)cc1OC
- IC50 [1]: 9400 nM

Compound: CCCCCCCCCCCCn1nnc(C(NC(=O)c2ccc(Cl)cc2)c2ccccc2)n1 (configuration not stated)
- IC50 [1]: 440 nM

Compound: CCCCCCCCCCCCn1nnc(C(NC(=O)c2ccc(C(F)(F)F)cc2)c2ccccc2)n1 (configuration not stated)
- IC50 [1]: 850 nM
- Change TC (Rattus norvegicus): -10%

Compound: CCCCCCCCCCCCn1nnc(C(NC(=O)c2ccc([N+](=O)[O-])cc2)c2ccccc2)n1 (configuration not stated)
- IC50 [1]: 540 nM
- Change TC (Rattus norvegicus): 8%

Compound: CCCCCCCCCCCCn1nnc(C(NC(=O)c2c(OC)cc(OC)cc2OC)c2ccccc2)n1 (configuration not stated)
- IC50 [1]: 1700 nM
- Change TC (Rattus norvegicus): -36%

Compound: CCCCCCCCCCCCn1nnnc1C(NC(=O)c1cccc([N+](=O)[O-])c1)c1ccccc1 (configuration not stated)
- IC50 [1]: 190 nM
- Change TC (Rattus norvegicus): -31%

Compound: CCCCCCCCCCCCn1nnc(C(NC(=O)c2ccccc2)c2ccccc2)n1 (configuration not stated)
- IC50 [1]: 350 nM
- Change TC (Rattus norvegicus): -5%

Compound: CCCCCCCCCCCCn1nnnc1C(NC(=O)c1c(Cl)cccc1Cl)c1ccccc1 (configuration not stated)
- IC50 [1]: 380 nM
- Change TC (Rattus norvegicus): -31%

Compound: CCCCCCCCCCCCn1nnc(C(NC(=O)c2ccnc(SC)c2)c2ccccc2)n1 (configuration not stated)
- IC50 [1]: 80 nM
- Change TC (Rattus norvegicus): -68%

Compound: CCCCCCCCCCC(C)(C)C(=O)Nc1c(OC)cc(OC)cc1OC [CL-976]
- Change TC (Rattus norvegicus): -73%
